From patent US6224849A, “Alkylaminobenzothiazole and-benzoxazole derivatives” (Janssen Pharmaceutica N.V., priority 1996, dated 2001)

Biological target: T1, cloned human D4 receptors (Homo sapiens, UniProt P21917)
T1 construct: purchased Receptor Biology, Maryland, USA; host or cells: transfected Chinese Hamster Ovary (CHO) cells (membrane preparation)
T1 sequence (P21917 1-419): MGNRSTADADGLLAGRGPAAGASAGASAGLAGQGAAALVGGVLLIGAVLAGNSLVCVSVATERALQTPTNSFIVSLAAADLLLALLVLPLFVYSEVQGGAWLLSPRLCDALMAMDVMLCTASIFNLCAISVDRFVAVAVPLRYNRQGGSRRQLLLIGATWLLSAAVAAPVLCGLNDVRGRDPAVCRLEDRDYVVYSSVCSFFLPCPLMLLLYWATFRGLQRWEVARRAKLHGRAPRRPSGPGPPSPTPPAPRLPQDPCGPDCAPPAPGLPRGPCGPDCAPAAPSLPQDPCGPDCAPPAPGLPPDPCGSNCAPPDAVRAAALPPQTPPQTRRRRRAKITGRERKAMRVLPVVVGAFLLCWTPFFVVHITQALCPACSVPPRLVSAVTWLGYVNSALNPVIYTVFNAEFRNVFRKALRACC
Assay: In vitro radioligand binding affinity for dopamine D4 receptor (3H-spiperone competition, transfected CHO cell membranes)
Conditions: membranes of transfected CHO cells expressing cloned human D4 receptors, read-out: pIC50 (-log IC50), dopamine D4 receptor (converted)
Procedure: In vitro binding affinity for dopamine D4 receptor
The interaction of the compounds of formula (I) with the dopamine D4 receptors was assessed in in vitro radioligand binding experiments.
A low concentration of ^3 H-spiperone with a high binding affinity for the dopamine D4 receptor was incubated with a sample of a membrane preparation of transfected Chinese Hamster Ovary (CHO) cells which express cloned human D4 receptors (Receptor Biology, Maryland, USA) in a buffered medium. When equilibrium of binding was reached, the receptor bound radioactivity was separated from the non-bound radioactivity, and the receptor bound activity was counted. The interaction of the test compounds, added to the incubation mixture in various concentrations, with the dopamine D4 receptor was assessed in competition binding experiments as described by Schotte et al. (Psychopharmacology, 1996, 124, 57-73).

IC50, ≤ 100 nM:
c1ccc(N2CCN(CCNc3nc4ccccc4s3)CC2)cc1 [Compound 6, N-[2-(4-phenyl-1-piperazinyl)ethyl]-2-benzothiazolamine]
COc1ccc(N2CCN(CCNc3nc4ccccc4s3)CC2)cc1 [Compound 21]
COc1ccc(N2CCN(CCNc3nc4ccccc4s3)CC2)cc1OC [Compound 23]
Fc1ccc(N2CCN(CCCNc3nc4ccccc4s3)CC2)cc1 [Compound 25]
CN(CCCN1CCN(c2ccc(Cl)c(Cl)c2)CC1)c1nc2ccccc2s1 [Compound 100]
CN(CCN1CCN(c2ccc(Cl)c(Cl)c2)CC1)c1nc2ccccc2s1 [Compound 101]
Clc1ccc(N2CCN(CCN(Cc3ccccc3)c3nc4ccccc4s3)CC2)cc1Cl [Compound 106]
c1ccc2c(N3CCN(CCNc4nc5ccccc5s4)CC3)cccc2c1 [Compound 119]
Clc1ccc(N2CCN(CCNc3nc4ccccc4s3)CC2)cc1 [Compound 134]
